Test results reported in patent publication US7189720B2 (H. Lundbeck A/S, priority 1999, dated 2007).
Like-named read-outs stand apart in the source and are kept apart here.

Assays:
human Y5 receptor [1] = molecular target: T1, human Y5 receptor (Homo sapiens, UniProt Q15761); experiment: Radioligand binding to membranes, cloned human Y5 receptor
T1 construct: expressed in transfected cells; host or cells: mouse fibroblast LM(tk-) cells, e.g. L-hY5-7 (ATCC CRL-11995)
T1 sequence (Q15761 1-445): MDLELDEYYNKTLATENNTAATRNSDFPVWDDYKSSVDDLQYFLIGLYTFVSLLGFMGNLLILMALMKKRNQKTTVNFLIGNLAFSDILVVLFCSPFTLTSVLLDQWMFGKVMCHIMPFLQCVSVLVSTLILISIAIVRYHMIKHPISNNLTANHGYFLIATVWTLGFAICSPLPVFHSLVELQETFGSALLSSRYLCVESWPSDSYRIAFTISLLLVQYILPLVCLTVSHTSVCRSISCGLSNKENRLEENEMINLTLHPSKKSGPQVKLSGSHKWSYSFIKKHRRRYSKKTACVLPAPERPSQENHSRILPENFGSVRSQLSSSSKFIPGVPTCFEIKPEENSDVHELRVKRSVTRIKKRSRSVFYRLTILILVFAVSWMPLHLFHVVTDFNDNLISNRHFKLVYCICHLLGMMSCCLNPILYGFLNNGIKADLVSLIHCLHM

human Y5 receptor [2] = molecular target: T1, human Y5 receptor; experiment: Functional assay: radioimmunoassay of cAMP in stably transfected cells; format: cell-based; conditions: Functional Antagonism Data, Table 7
Method: LM(tk-) cells stably transfected with the human Y5 receptor were routinely converted from an adherent monolayer to a viable suspension. Adherent cells were harvested with trypsin at the point of confluence, resuspended in a minimal volume of complete DMEM for a cell count, and further diluted to a concentration of 10^6 cells/ml in suspension media (10% bovine calf serum, 10% 10× Medium 199 (Gibco), 9 mM NaHCO3, 25 mM glucose, 2 mM L-glutamine, 100 units/ml penicillin/100 μg/ml streptomycin, and 0.05% methyl cellulose). The cell suspension was maintained in a shaking incubator at 37° C., 5% CO2 for 24 hours. Membranes harvested from cells grown in this manner may be stored as large, uniform batches in liquid nitrogen. Alternatively, cells may be returned to adherent cell culture in complete DMEM by distribution into 96-well microtiter plates coated with poly-D-lysine (0.01 mg/ml) followed by incubation at 37° C., 5% CO2 for 24 hours.
Stably transfected cells were seeded into 96-well microtiter plates and cultured until confluent. […] Cells were washed in […] buffered saline, or HBS (150 mM NaCl, 20 mM HEPES, 1 mM CaCl2, 5 mM KCl, 1 mM MgCl2, and 10 mM glucose) supplemented with 0.1% bovine serum albumin plus 5 mM theophylline and pre-equilibrated in the same solution for 20 min at 37° C. in 5% CO2. Cells were then incubated 5 min with 10 μM forskolin and various concentrations of receptor-selective ligands. The assay was terminated by the removal of HBS and acidification of the cells with 100 mM HCl. Intracellular cAMP was extracted and quantified with a modified version of a magnetic bead-based radioimmunoassay (Advanced Magnetics, Cambridge, Mass.). The final antigen/antibody complex was separated from free ^125I-cAMP by vacuum filtration through a PVDF filter in a microtiter plate (Millipore, Bedford, Mass.). Filters were punched and counted for ^125I, in a Packard gamma counter.

human Y1 receptor = molecular target: T2, human Y1 receptor (Homo sapiens, UniProt P25929); experiment: Radioligand binding to membranes, cloned human Y1 receptor; conditions: text b745; read-out: Ki (nM) NPY (Y1)
T2 construct: expressed in transfected cells; host or cells: human embryonic kidney 293 cells, e.g. 293-hY1-5 (ATCC CRL-12121)
T2 sequence (P25929 1-384): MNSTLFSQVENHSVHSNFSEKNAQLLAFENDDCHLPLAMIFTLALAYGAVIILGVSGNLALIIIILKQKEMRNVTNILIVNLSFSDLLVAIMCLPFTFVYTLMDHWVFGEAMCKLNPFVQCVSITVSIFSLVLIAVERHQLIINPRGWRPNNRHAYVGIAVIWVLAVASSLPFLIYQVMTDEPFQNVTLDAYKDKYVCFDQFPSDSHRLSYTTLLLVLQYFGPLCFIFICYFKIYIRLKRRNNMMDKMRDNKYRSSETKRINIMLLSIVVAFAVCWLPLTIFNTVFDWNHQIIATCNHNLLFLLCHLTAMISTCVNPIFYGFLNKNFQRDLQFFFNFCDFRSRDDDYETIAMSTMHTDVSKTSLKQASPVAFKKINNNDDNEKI
Method: (§1) Binding of the compounds of the present invention to human Y1, Y2, Y4, and Y5 receptors was evaluated using stably transfected 293 or LM(tk-) cells as described above.
(§2) Membranes were harvested from COS-7 cells 48 hours after transient transfection. Adherent cells were washed twice in ice-cold phosphate buffered saline (138 mM NaCl, 8.1 mM Na2HPO4, 2.5 mM KCl, 1.2 mM KH2PO4, 0.9 mM CaCl2, 0.5 mM MgCl2, pH 7.4) and lysed by sonication in ice-cold sonication buffer (20 mM Tris-HCl, 5 mM EDTA, pH 7.7). Large particles and debris were cleared by low speed centrifugation (200×g, 5 min, 4° C.). Membranes were collected from the supernatant fraction by centrifugation (32,000×g, 18 min, 4° C.), washed with ice-cold hypotonic buffer, and collected again by centrifugation (32,000×g, 18 min, 4° C.). The final membrane pellet was resuspended by sonication into a small volume of ice-cold binding buffer (˜1 ml for every 5 plates: 10 mM NaCl, 20 mM HEPES, 0.22 mM KH2PO4, 1.26 mM CaCl2, 0.81 mM MgSO4, pH 7.4). Protein concentration was measured by the Bradford method (Bradford, 1976) using Bio-Rad Reagent, with bovine serum albumin as a standard. Membranes were held on ice for up to one hour and used fresh, or flash-frozen and stored in liquid nitrogen.
(§3) Membranes were prepared similarly from 293, LM(tk-), and NIH-3T3 cells.
(§4) Membrane suspensions were diluted in binding buffer supplemented with 0.1% bovine serum albumin to yield an optimal membrane protein concentration so that ^125I-PYY (or alternative radioligand such as ^125I-NPY, ^125I-NYY3-36, or ^125I-[Leu^31Pro^34]PYY) bound by membranes in the assay was less than 10% of ^125I-PYY (or alternative radioligand) delivered to the sample (100,000 dpm/sample=0.08 nM for competition binding assays). ^125I-PYY (or alternative radioligand) and peptide competitors were also diluted to desired concentrations in supplemented binding buffer. Individual samples were then prepared in 96-well polypropylene microtiter plates by mixing ^125I-PYY (25 μL) (or alternative radioligand), competing peptides or supplemented binding buffer (25 μL), and finally, membrane suspensions (200 μL). Samples were incubated in a 30° C. water bath with constant shaking for 120 min. Incubations were terminated by filtration over Whatman GF/C filters (pre-coated with 1% polyethyleneimine and air-dried before use), followed by washing with 5 mL of ice-cold binding buffer. Filter-trapped membranes were impregnated with MeltiLex solid scintillant (Wallac, Turku, Finland) and counted for ^125I in a Wallac Beta-Plate Reader. Alternatively, incubations were carried out in GF/C filter plates (pre-coated with 1% polyethyleneimine and air-dried before use), followed by vacuum filtration and three washes of 300 μL of ice-cold binding buffer. 50 μL of UltimaGold (Packard) scintillant were added and counted for ^125I, in a Wallac MicroBeta Trilux. Non-specific binding was defined by 300 nM human NPY for all receptors except the Y4 subtypes; 100 nM human PP was used for the human Y4 and 100 nM rat PP for the rat Y4.

human Y4 receptor = molecular target: T3, human Y4 receptor (Homo sapiens, UniProt P50391); experiment: Radioligand binding to membranes, cloned human Y4 receptor; conditions: text b745; read-out: Ki (nM) NPY (Y4)
T3 construct: expressed in transfected cells; host or cells: mouse fibroblast LM(tk-) cells, e.g. L-hY4-3 (ATCC CRL-11779)
Method: as §1, §2, §3, §4

human Y2 receptor = molecular target: T4, human Y2 receptor (Homo sapiens, UniProt P49146); experiment: Radioligand binding to membranes, cloned human Y2 receptor
T4 sequence (P49146 1-381): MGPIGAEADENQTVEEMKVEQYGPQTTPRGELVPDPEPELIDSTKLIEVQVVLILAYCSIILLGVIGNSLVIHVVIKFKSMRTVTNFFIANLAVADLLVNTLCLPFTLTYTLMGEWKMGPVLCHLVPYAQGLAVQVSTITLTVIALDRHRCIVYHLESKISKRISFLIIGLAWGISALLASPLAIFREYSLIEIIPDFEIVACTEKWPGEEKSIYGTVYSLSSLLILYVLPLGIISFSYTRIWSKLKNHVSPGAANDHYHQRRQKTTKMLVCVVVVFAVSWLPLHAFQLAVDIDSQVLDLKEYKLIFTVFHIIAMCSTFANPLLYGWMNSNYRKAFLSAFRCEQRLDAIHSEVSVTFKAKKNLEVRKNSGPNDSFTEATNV
Method: as §1, §2, §3, §4

[3] = Table 6, read-out: Ki, nM hNPY-5

T3 sequence (P50391 whole entry): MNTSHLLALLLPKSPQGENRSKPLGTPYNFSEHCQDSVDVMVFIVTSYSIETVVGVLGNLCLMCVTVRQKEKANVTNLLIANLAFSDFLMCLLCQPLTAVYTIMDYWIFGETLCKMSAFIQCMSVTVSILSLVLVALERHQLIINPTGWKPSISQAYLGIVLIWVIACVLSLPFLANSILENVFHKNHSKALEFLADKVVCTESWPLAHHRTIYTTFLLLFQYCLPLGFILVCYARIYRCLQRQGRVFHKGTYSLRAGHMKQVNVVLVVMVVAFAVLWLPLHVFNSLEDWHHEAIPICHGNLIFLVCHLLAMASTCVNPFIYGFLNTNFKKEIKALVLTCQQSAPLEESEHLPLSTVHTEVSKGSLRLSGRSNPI

| Compound | Kb (human Y5 receptor [2]) [nM] | Ki (human Y5 receptor [1]; [3]) [nM] | also measured |
| --- | --- | --- | --- |
| CCNc1nc(NCC)nc(NCC2CCC(CNS(=O)(=O)c3cccs3)CC2)n1 (stereo not drawn) [Example 37, N2-[4-([4,6-di(ethylamino)-1,3,5-triazin-2-yl]aminomethyl)cyclohexyl]methyl-2-thiophenesulfonamide] | 158 |  | Ki (human Y5 receptor [1]; Table 2, read-out: Ki (nM) hNPY-5): 55 nM |
| CNc1nc(NCC2CCC(CNS(=O)(=O)c3cccc4ccccc34)CC2)nc(NC(C)C)n1 (stereo not drawn) [Example 1, N1-{[4-({[4-(Isopropylamino)-6-(methylamino)-1,3,5-triazin-2-yl]amino}methyl)cyclohexyl]methyl}-1-naphthalenesulfonamide] | 200 |  | Ki (human Y5 receptor [1]; Table 1, read-out: Ki (nM) hNPY-5): 13 nM |
| CC(C)Nc1nc(Cl)nc(NCC2CCC(CNS(=O)(=O)c3cccc4ccccc34)CC2)n1 (stereo not drawn) [Example 49, N1-{[4-({[4-chloro-6-(isopropylamino)-1,3,5-triazin-2-yl]amino}methyl)cyclohexyl]methyl}-1-naphthalenesulfonamide] | 1000 |  | Ki (human Y5 receptor [1]; Table 3, read-out: Ki (nM) hNPY-5): 138 nM; Ki (human Y1 receptor): > 100000 nM; Ki (human Y4 receptor): > 100000 nM; Ki (human Y2 receptor): > 100000 nM |
| CS(=O)(=O)NC[C@H]1CC[C@H](Nc2nc3c(s2)CCSc2ccccc2-3)CC1 [Example 104, N-{[4-(4,5-Dihydrobenzo[2,3]thiepino[4,5-d][1,3]thiazol-2-ylamino)cyclohexyl]methyl}-methanesulfonamide] | 2.51 | 6.8 |  |
| Cc1nc(-c2csc(N[C@H]3CC[C@H](CNS(=O)(=O)N(C)C)CC3)n2)c(C)s1 [Example 98, trans-N′-[(4-[4-(2,5-dimethyl-1,3-thiazol-4-yl)-1,3-thiazol-2-yl]aminocyclohexyl)methyl]-N,N-dimethylsulfamide] | 3.98 |  | Ki (human Y5 receptor [1]; Table 5, read-out: Ki, nM hNPY-5): 1.5 nM |
| O=S(=O)(NC[C@H]1CC[C@H](Nc2nc3c(s2)CCSc2ccccc2-3)CC1)c1cccc2cccnc12 [Example 157, N8-{[4-(4,5-Dihydrobenzo[2,3]thiepino[4,5-d][1,3]thiazol-2-ylamino)cyclohexyl]methyl}-8-quinolinesulfonamide] | 20 | 5.7 |  |
